# EP0364941A1, “Branched-chain alkyl esters of 2-(4-(2-piperidino ethoxy)benzoyl)benzoic acid, processes for their preparation and their use as spasmolytic agents” (HOECHST AKTIENGESELLSCHAFT, priority 1988, dated 1990)
# Read-outs that look alike come from different tables or passages of the source.
# Assays:
# [1] = system: Porcine liver esterase; assay: Enzymatic hydrolysis rates by porcine liver esterase; assay type: in vitro ADME; details: test compound 1 mM, pH 8.0, 37°C
# Protocol: Porcine liver esterase (0.5 U = 2 µg) was preincubated in 40 mM Tris-HCl buffer, pH 8.0, at 37°C for 5 min. The reaction was initiated with the addition of the test compound (final concentration, 1 mM) in the final volume of 250 µl. Enzyme reaction was terminated at different time intervals by the addition of 60 µl of 1 M acetic acid. The solution was made alkaline (pH 10.5) by adding 0.4 M NaOH and the alkaline solution was rapidly extracted (three times) with 2.5 ml of chloroform. An aliquot of the aqueous supernatant was diluted with double distilled water and the absorbance was measured at 290 nm. Amount of test compound III (molar extinction = 14,400) formed was calculated.
# [2] = system: isolated guinea pig ileum; assay: Antispasmodic activity in isolated guinea pig ileum (acetylcholine-induced contraction); assay type: cell-based
# Protocol: Small intestines obtained from freshly sacrificed guinea pigs (weight range, 200 - 400 g) of either sex were cleaned and stored in tyrode solution. A piece of ileum was mounted in an organ bath containing tyrode solution at 37°C and maintained at a tension of 0.5 to 1.0 g. The solution was continuously aerated with compressed air. After an initial equilibration period, a sub-maximal dose of acetylcholine required for measurable contraction was standardised. Tension changes were monitored using an isotonic strain gauge attached to the tissue and the responses were recorded on a strip chart recorder. Antispasmodic activity of test compounds at different concentrations was followed and the IC₅₀ values were calculated from dose response curves.
# [3] = system: small intestine; assay: Gastrointestinal propulsion (charcoal transport) in mice; assay type: in vivo
# Protocol: Ref.: J.M.A. Zwagemakers and V. Claassen, Arzneim-Forsch/-Drug Res. 30 (II) Nr.9, p.1517 (1980).
# The test compounds I and II were given orally by gavage in a range of 10 to 100 mg/kg doses 30 min before charcoal suspension (0.2 ml/animal, 10% charcoal in 5% gum acacia) in 18 hrs fasted mice (male or female, weight range 18 to 25 g). 30 min after administration of charcoal animals were killed and the extent of charcoal propulsion in the small intestine was measured. The inhibitory activity of test compound on charcoal transport was assessed as percent inhibition compared to length of intestine. For control group 10 ml/kg of saline was given.
# [4] = system: small intestine; assay: Motility of the small intestine in the conscious dog; assay type: in vivo; details: for Area under the contraction curve, Postdrug 10 min: 10 min postdrug; for Area under the contraction curve, Postdrug 10 min / Area under the contraction curve, Postdrug 20 min / Area under the contraction curve, Postdrug 30 min / Area under the contraction curve, Postdrug 40 min / Area under the contraction curve, Postdrug 50 min / Area under the contraction curve, Postdrug 60 min / Area under the contraction curve, Predrug -20 - 0: phase I and II; for Area under the contraction curve, Postdrug 20 min: 20 min postdrug; for Area under the contraction curve, Postdrug 30 min: 30 min postdrug; for Area under the contraction curve, Postdrug 40 min: 40 min postdrug; for Area under the contraction curve, Postdrug 50 min: 50 min postdrug; for Area under the contraction curve, Postdrug 60 min: 60 min postdrug; for Inhibition Maximal / Inhibition Mean / ED50: phase I+II activity; for Area under the contraction curve, Predrug -20 - 0: predrug baseline -20 - 0 min; for Duration of action: when postdrug values reached 90 % or more of predrug values; for ED50: Canis lupus familiaris, iv
# From the text: Male dogs (THG Tierhandelsgesellschaft Rodenbach, Hoe:BEAK (Beagle)) weighing 15 - 20 kg were used in all experiments. At least 4 weeks prior to the experiment the dogs had been equipped with miniaturized strain gage force transducers (T1-T3) (2x4 mm), sutured onto the gut at the locations mentioned below. The cables of the transducers were embedded into a cannula which carried the plug for external electric connection. This stainless steel cannula was implanted into the abdominal wall, close below the costal arch. Each transducer was connected to a measuring bridge. The signals were on line stored using a HP 9835 A computer, allowing later analysis of the data. • T1 : Proximal jejunum • T2 : Distal jejunum • T3 : Ileum
# (§1) 18 hours prior to the experiment food was withdrawn from the animals, water ad libidum. All experiments started between 08:00 and 09:00 am.
# The following motility parameters were determined: The integral under the […] at 10 min intervals (mNx10min) as an index of phase I + II activity. The duration of drug action (min.) The duration of the interdigestive migrating complex (IMC) (min) as a measure of phase III activity.
# Test Compound II was given at doses of 0.2 and 0.5 mg/kg i.v. or 5 mg/kg i.g., dissolved in saline, in a volume of 1 ml/kg (i.v.) or 2 ml/kg (i.g.), n = 3 - 6. Control n = 26.
# Buscopan was given at doses of 0.3 and 1 mg/kg i.v., dissolved in saline, in a volume of 1 ml/kg, n = 4 - 6. Pitofenone was given at doses of 1 mg/kg i.v., dissolved in saline, in a volume of 1 ml/kg, n = 8.
# ID₅₀-values were determined graphically.
# [5] = system: large Bowel; assay: Motility of the large bowel (colonic motor complex) in conscious dogs; assay type: in vivo
# From the text: Male dogs (THG Tierhandelsgesellschaft Rodenbach, Hoe:BEAK (Beagle)) weighing 15 - 20 kg were used in all experiments.
# At least 4 weeks prior the experiment the dogs had been equipped with miniaturised strain gage force transducers (T1-T2) (2x4mm), sutured onto the gut at the locations mentioned below. The cables of the transducers were embedded into a cannula which carried the plug for external electric connection. This stainless steel cannula was implanted into the abdominal wall, close below the costal arch. Each transducer was connected to a measuring bridge. The signals were on line stored using a HP 9835 A computer, allowing later analysis of the data. • T1 : Colon ascendens 10 cm aborafrom the ileoceval valve (ICV) • T2 : Colon transversum 25 cm aborad from the ICV
# as §1
# The following parameters were determined: The duration of the cycle (min) The duration of the colonic motor complex (CMC) (min) The maximal height of the concentrations (AU: arbitrary units)
# Data from the two recording sites (T1-T2) were pooled. […]
# For detection of significant differences (p < 0.05) the unpaired t-test was used. Only significant differences were indicated by *.
smiles,measurement,setting,value
"CC(C)OC(=O)c1ccccc1C(=O)c1ccc(OCCN2CCCCC2)cc1.Cl [Test Compound II, Isopropyl-2-[4-(2-piperidino-ethoxy)-benzoyl]-benzoate hydrochloride]",µmol test compound III formed per mg protein per ml,[1]; Time 0.0 hours,0.00 µmol per mg protein per ml
same,µmol test compound III formed per mg protein per ml,[1]; Time 0.5 hours,0.05 µmol per mg protein per ml
same,µmol test compound III formed per mg protein per ml,[1]; Time 2.0 hours,0.10 µmol per mg protein per ml
same,µmol test compound III formed per mg protein per ml,[1]; Time 3.5 hours,0.10 µmol per mg protein per ml
same,Guinea pig ileum Duration of action,[2],> 7.0 min
same,IC50,"[2]; Cavia porcellus, read-out: Guinea pig ileum IC₅₀",0.01 µg/mL
same,Percent Inhibition,[3]; 10 mg/kg p.o.,38.0 ± 4.0%
same,Percent Inhibition,[3]; 30 mg/kg p.o.,41.0 ± 3.0%
same,Percent Inhibition,[3]; 60 mg/kg p.o.,46.0 ± 5.0%
same,"Area under the contraction curve, Postdrug 10 min",[4]; 0.2 mg/kg i.v.,1.54 mN x 10 min
same,"Area under the contraction curve, Postdrug 20 min",[4]; 0.2 mg/kg i.v.,1.42 mN x 10 min
same,"Area under the contraction curve, Postdrug 30 min",[4]; 0.2 mg/kg i.v.,1.88 mN x 10 min
same,"Area under the contraction curve, Postdrug 40 min",[4]; 0.2 mg/kg i.v.,1.77 mN x 10 min
same,"Area under the contraction curve, Postdrug 50 min",[4]; 0.2 mg/kg i.v.,1.78 mN x 10 min
same,"Area under the contraction curve, Postdrug 60 min",[4]; 0.2 mg/kg i.v.,2.19 mN x 10 min
same,Inhibition Maximal,[4]; 0.2 mg/kg i.v.,34%
same,Inhibition Mean,[4]; 0.2 mg/kg i.v.,22 ± 4%
same,"Area under the contraction curve, Predrug -20 - 0",[4]; 0.2 mg/kg i.v.,2.15 mN x 10 min
same,Duration of action,[4]; 0.2 mg/kg i.v.,50 min
same,duration of inhibitory effect,"[4]; 0.5 mg/kg i.v., conscious dog",approximately one
same,"Area under the contraction curve, Postdrug 10 min",[4]; 0.5 mg/kg i.v.,0.54 mN x 10 min
same,"Area under the contraction curve, Postdrug 20 min",[4]; 0.5 mg/kg i.v.,0.50 mN x 10 min
same,"Area under the contraction curve, Postdrug 30 min",[4]; 0.5 mg/kg i.v.,0.99 mN x 10 min
same,"Area under the contraction curve, Postdrug 40 min",[4]; 0.5 mg/kg i.v.,1.17 mN x 10 min
same,"Area under the contraction curve, Postdrug 50 min",[4]; 0.5 mg/kg i.v.,1.61 mN x 10 min
same,"Area under the contraction curve, Postdrug 60 min",[4]; 0.5 mg/kg i.v.,2.46 mN x 10 min
same,Inhibition Maximal,[4]; 0.5 mg/kg i.v.,81%
same,Inhibition Mean,[4]; 0.5 mg/kg i.v.,54 ± 11%
same,"Area under the contraction curve, Predrug -20 - 0",[4]; 0.5 mg/kg i.v.,2.62 mN x 10 min
same,Duration of action,[4]; 0.5 mg/kg i.v.,60 min
same,Duration of cycles,"[4]; 5 mg/kg intragastrical, Phase III activity",298 ± 18 min
same,inhibition of phase III activity,"[4]; 5 mg/kg intragastrically, conscious dog",pronounced inhibition
same,ED50,"[4]; conscious dog, read-out: intravenous IC₅₀-values determined from maximal inhibition",0.22 mg/kg
same,ED50,"[4]; determined graphically, read-out: ID₅₀",0.26 mg/kg
same,effect on colonic motility,[5]; 1 mg/kg i.g.,uneffective
same,Duration CMC,[5]; 1 mg/kg intragastrically,6 ± 2 min
same,Duration Cycle,[5]; 1 mg/kg intragastrically,28 ± 11 min
same,Max.heigth of CMC,[5]; 1 mg/kg intragastrically,50±25 AU
same,Total number of spikes,[5]; 1 mg/kg intragastrically,5.6±1.7 n/CMC
same,Duration CMC,[5]; 3 mg/kg intragastrically,11 ± 3 min
same,Duration Cycle,[5]; 3 mg/kg intragastrically,136 ± 42 min
same,Max.heigth of CMC,[5]; 3 mg/kg intragastrically,40±23 AU
same,Total number of spikes,[5]; 3 mg/kg intragastrically,5.5±1.0 n/CMC
same,duration of complete inhibition of colonic motility (CMC),[5]; 4 mg/kg i.g.,about 2 hours
